The results in this text go back to patent publication US5852049A, “Aromatic ethers derived from indoles which are useful as medicaments” (Pierre Fabre Medicament, priority 1994, dated 1998).

The structures appear in SMILES notation. Counter-ions that a name gives are not always drawn. Like-named read-outs stand apart in the source and are kept apart here.

The test system of one assay is rabbit saphenous vein. The assay can be described thus: contraction of the rabbit saphenous vein rings mediated by the 5HT1-like receptors. Format: cell-based. The note with it: Oryctolagus cuniculus; for Emax: read-out: Relative Emax; for EC50: read-out: pD2 (converted). An excerpt:
The derivatives of the present invention are, in addition, capable, like serotonin, of inducing the contraction of the rabbit saphenous vein rings mediated by the "5HT1-like " receptors.
The technique used was adapted from Van Heuven-Nolsen D. et al., Eur. J. Pharmacol. 191, 375-382 (1990) and from Martin G. R. and Mc Lennan S. J., Naunyn-Schmiedeberg's Arch. Pharmacol. 342, 111-119 (1990) and therefore makes it possible to determine a pD2 value and an Emax relative to serotonin for each product tested.

A further assay deals with T1, human 5HT1Dβ (Homo sapiens, UniProt P28222).
T1 construct: expressed in transfected cells; host or cells: Cos-7 and CHO-K1
Kind of assay: binding to human 5HT1Dβ receptor.

The target of the next assay is T2, human 5HT1A (Homo sapiens, UniProt P08908).
T2 construct: expressed in transfected cells; host or cells: HeLa HA7
T2 sequence (P08908 1-422): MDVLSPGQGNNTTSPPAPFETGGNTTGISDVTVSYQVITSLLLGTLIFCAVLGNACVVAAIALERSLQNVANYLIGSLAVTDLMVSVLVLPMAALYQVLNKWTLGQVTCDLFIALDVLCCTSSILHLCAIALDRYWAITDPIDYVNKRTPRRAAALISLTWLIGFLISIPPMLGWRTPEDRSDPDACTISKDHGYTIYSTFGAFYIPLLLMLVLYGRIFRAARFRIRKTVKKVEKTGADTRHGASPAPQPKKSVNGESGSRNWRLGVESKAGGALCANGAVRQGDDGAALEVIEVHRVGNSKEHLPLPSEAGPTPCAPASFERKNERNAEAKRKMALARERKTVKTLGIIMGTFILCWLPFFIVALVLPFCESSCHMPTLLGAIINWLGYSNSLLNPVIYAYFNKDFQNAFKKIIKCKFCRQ
The assay can be described thus: binding to human 5HT1A receptor (HeLa HA7 cell line). An excerpt: The HeLa HA7 cell line expressing the human 5HT1A receptor was obtained from Tulco (Duke Univ., Durham, N.C., USA) and cultured according to the method of Fargin et al., J. Biol. Chem. 264, 14848 (1989).
Palmier (Neuropharmacology, 33, 67, 1994).

The target in another assay is T3, human 5HT1Dα (Homo sapiens, UniProt P28221).
T3 construct: expressed in transfected cells; host or cells: Cos-7 and CHO-K1
The assay can be described thus: binding to human 5HT1Dα receptor.

The mark [1] stands for this setting: contraction of the rabbit saphenous vein.
Where [2] appears, read: human receptor, [3H]-5CT 2 nM, read-out: Ki 5HT1Dβ.
Where [3] appears, read: human receptor, HeLa HA7, [3H]-8OH-DPAT 1 nM, read-out: Ki 5HT1A.
Where [4] appears, read: Emax of the compound relative to Emax of serotonin.

T1 sequence (P28222 whole entry): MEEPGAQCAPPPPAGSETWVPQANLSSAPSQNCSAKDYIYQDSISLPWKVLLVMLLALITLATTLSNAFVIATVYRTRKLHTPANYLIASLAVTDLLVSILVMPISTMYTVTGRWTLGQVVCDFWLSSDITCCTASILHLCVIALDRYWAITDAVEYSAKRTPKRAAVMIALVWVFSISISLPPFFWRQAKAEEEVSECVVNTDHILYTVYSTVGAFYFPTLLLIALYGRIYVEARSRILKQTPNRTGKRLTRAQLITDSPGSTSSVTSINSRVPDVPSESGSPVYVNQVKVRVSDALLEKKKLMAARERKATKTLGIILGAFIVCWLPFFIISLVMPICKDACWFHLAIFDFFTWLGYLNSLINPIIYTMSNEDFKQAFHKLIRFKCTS
T3 sequence (P28221 whole entry): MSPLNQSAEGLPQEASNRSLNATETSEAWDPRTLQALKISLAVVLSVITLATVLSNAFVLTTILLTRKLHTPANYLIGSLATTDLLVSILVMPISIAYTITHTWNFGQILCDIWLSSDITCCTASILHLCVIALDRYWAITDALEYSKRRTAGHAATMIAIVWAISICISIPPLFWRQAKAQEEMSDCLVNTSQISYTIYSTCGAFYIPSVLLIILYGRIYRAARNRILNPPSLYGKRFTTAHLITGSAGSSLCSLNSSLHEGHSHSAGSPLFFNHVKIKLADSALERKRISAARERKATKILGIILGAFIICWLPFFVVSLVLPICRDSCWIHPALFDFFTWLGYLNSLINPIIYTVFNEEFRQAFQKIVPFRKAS
Procedure for human 5HT1Dα: (§1) The study of the binding of the derivatives of the present invention with the human 5HT1Dα, 5HT1Dβ and 5HT1A receptors was carried out according to the method described by P. Pauwels and C. Palmier (Neuropharmacology, 33, 67, 1994).
(§2) The incubation media for these binding measurements comprise 0.4 ml of cell membrane preparation, 0.05 ml of a tritiated ligand [[3H]-5CT (final concentration: 2 nM) for the 5HT1Dα and 5HT1Dβ receptors and [3H]-8OH-DPAT (final concentration: 1 nM) for the 5HT1A receptor] and 0.05 ml of the molecule to be tested (final concentrations: 0.1 to 1000 nM) or 10 μM (final concentration) of serotonin (5HT1Dα and 5HT1Dβ) or 1 μM (final concentration)of spiroxatrine (5HT1A).
Procedure for human 5HT1Dβ: as §1, §2

Regarding `CCOC(=O)CCCOc1ccc2[nH]cc(CCN)c2c1` [Example 12, Ethyl 4-[3-(2-aminoethyl)-1H-indol-5-yloxy)-butyrate hydrochloride], the Emax – broadly, the size of the effect at its maximum, as opposed to the concentration needed – in the assay on rabbit saphenous vein came out at 80%. Further, the EC50 in the assay on rabbit saphenous vein (setting [1]) was 692 nM.

On to `CCOC(=O)CCCCOc1ccc2[nH]cc(CCN)c2c1` [Example 13, Ethyl 5-[3-(2-aminoethyl)-1H-indol-5-yloxy]pentanoate hydrochloride], for which the Emax with rabbit saphenous vein worked out at 120%. Besides, in the assay on rabbit saphenous vein (setting [1]), the EC50 is 309 nM.

For the compound `CC(C)OC(=O)CCCCCOc1ccc2[nH]cc(CCN)c2c1` [Example 16, Isopropyl 6-[3-(2-aminoethyl)-1H-indol-5-yloxy]hexanoate hydrochloride], in the assay with rabbit saphenous vein, the Emax worked out at 136%. Also, in the assay on rabbit saphenous vein (setting [1]), the EC50 is 240 nM. Further, the Ki (commonly a dissociation constant, usually derived from enzyme kinetics or from competition with a known ligand) at human 5HT1Dβ was 0.7 nM; on human 5HT1A it was 9 nM; on human 5HT1Dα it was 1.5 nM.

Regarding `N#CCCCCCOc1ccc2[nH]cc(CCN)c2c1` [Example 17, 6-[3-(2-Aminoethyl)-1H-indol-5-yloxy]hexanitrile hydrochloride], the Ki on human 5HT1Dβ (setting [2]) came to 2.6 nM; on human 5HT1A (setting [3]), 24.3 nM; on human 5HT1Dα it was 2.2 nM.

As for `NCCCCCCOc1ccc2[nH]cc(CCN)c2c1` [Example 18, 6-[3-(2-Aminoethyl)-1H-indol-5-yloxy]hexylamine hydrochloride], the Ki on human 5HT1Dβ was 2 nM; on human 5HT1A, 78.6 nM; on human 5HT1Dα, 2.4 nM.

Regarding `CS(=O)(=O)NCCCCCCOc1ccc2[nH]cc(CCN)c2c1` [Example 19, N-{6-[3-(2-Aminoethyl)-1H-indol-5-yloxy]hexyl}methanesulfonamide hydrochloride], the Emax in the assay with rabbit saphenous vein came to 100%. Besides, in the assay on rabbit saphenous vein, the EC50 is 15.8 nM. For the same compound, the Ki on human 5HT1Dβ worked out at 0.7 nM; at human 5HT1A it was 11.5 nM; on human 5HT1Dα it was 1.1 nM.

On to `CCNC(=O)CCCCCOc1ccc2[nH]cc(CCN)c2c1` [Example 20, 6-[3-(2-Aminoethyl)-1H-indol-5-yloxy]-N-ethylhexanamide hydrochloride], for which the Ki at human 5HT1Dβ (read-out: Ki 5HT1Dβ, human receptor, [3H]-5CT 2 nM) is 1.1 nM; at human 5HT1A (read-out: Ki 5HT1A, human receptor, HeLa HA7, [3H]-8OH-DPAT 1 nM) it was 46.5 nM; on human 5HT1Dα (read-out: Ki 5HT1Dα, human receptor, [3H]-5CT 2 nM) it was 2 nM.

For the compound `CC(=O)OCCCCOc1ccc2[nH]cc(CCN)c2c1` [Example 23, 4-[3-(2-Aminoethyl)-1H-indol-5-yloxy]butylacetate hydrochloride], the inhibition constant Ki on human 5HT1Dβ worked out at 0.4 nM; at human 5HT1A, 40 nM; at human 5HT1Dα, 0.9 nM.

Regarding `CNS(=O)(=O)CCc1ccc2[nH]cc(C3CCN(C)CC3)c2c1` [Naratriptan, reference compound], the Emax in the assay with rabbit saphenous vein (setting [4]) was found to be 100%. In the assay on rabbit saphenous vein (setting [1]), the EC50 was 2880 nM. In addition, the Ki was determined as 2 nM on human 5HT1Dβ (setting [2]); 46 nM on human 5HT1A (setting [3]); 1.6 nM on human 5HT1Dα (human receptor, [3H]-5CT 2 nM, read-out: Ki 5HT1Dα).

With `CNS(=O)(=O)Cc1ccc2[nH]cc(CCN(C)C)c2c1` [Sumatriptan, reference compound], in the assay on rabbit saphenous vein (setting [4]), the Emax amounted to 126%. In the assay on rabbit saphenous vein (setting [1]), the EC50 is 1780 nM.
